According to ChEMBL document CHEMBL4052667 (Bioorg Med Chem, 2017):

What was measured:
[1] = target: Poly [ADP-ribose] polymerase 1 (Homo sapiens, UniProt P09874); experiment: Inhibition of recombinant full length human N-terminal GST-tagged PARP1 expressed in baculovirus infected Sf9 cells using biotinylated substrate after 1 hr by UV/Vis spectrophotometric analysis
[2] = target: Poly [ADP-ribose] polymerase 2 (Homo sapiens, UniProt Q9UGN5); experiment: Inhibition of recombinant human N-terminal GST-tagged PARP2 (2 to 583 residues) expressed in baculovirus infected Sf9 cells using biotinylated substrate after 1 hr by UV/Vis spectrophotometric analysis
Chain of Poly [ADP-ribose] polymerase 2 (Q9UGN5 whole entry, the tested form may be a part): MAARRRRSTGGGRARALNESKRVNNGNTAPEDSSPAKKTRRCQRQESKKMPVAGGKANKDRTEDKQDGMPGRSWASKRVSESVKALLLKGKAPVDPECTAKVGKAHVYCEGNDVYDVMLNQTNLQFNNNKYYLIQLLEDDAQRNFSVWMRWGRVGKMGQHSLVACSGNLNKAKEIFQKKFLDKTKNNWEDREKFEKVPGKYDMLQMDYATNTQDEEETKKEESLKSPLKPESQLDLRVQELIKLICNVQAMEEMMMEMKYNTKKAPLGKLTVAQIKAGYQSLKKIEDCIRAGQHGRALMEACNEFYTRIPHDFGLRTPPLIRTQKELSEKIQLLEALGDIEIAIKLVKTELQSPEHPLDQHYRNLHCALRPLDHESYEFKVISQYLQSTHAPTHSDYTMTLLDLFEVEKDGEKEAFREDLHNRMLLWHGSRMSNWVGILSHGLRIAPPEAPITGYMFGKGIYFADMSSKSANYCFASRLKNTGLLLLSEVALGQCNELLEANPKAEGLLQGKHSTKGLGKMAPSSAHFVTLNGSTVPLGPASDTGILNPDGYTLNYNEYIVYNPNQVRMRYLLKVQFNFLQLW

Histone deacetylase 1 = Histone deacetylase 1 (Homo sapiens, UniProt Q13547); experiment: Inhibition of HDAC1 (unknown origin) using acetylated peptide substrate preincubated for 15 mins followed by substrate addition measured after 60 mins by fluorescence analysis
Chain of Histone deacetylase 1 (Q13547 whole entry): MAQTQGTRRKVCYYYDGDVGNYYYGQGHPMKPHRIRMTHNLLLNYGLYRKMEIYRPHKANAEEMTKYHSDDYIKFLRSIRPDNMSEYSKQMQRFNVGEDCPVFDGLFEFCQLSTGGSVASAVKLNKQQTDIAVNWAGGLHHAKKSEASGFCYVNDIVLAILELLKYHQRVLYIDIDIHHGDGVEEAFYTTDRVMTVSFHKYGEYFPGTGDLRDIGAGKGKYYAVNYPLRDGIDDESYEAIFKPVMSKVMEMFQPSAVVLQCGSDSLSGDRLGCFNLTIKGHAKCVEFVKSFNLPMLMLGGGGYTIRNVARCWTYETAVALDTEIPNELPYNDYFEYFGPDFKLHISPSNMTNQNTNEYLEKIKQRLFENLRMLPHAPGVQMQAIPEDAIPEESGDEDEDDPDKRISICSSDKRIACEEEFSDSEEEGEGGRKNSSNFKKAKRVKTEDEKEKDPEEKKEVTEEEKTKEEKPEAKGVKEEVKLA

[3] = target: T1, Protein deacetylase HDAC6 (Homo sapiens, UniProt Q9UBN7); experiment: Inhibition of HDAC6 (unknown origin) using acetylated peptide substrate preincubated for 15 mins followed by substrate addition measured after 60 mins by fluorescence analysis
T1 sequence (Q9UBN7 whole entry): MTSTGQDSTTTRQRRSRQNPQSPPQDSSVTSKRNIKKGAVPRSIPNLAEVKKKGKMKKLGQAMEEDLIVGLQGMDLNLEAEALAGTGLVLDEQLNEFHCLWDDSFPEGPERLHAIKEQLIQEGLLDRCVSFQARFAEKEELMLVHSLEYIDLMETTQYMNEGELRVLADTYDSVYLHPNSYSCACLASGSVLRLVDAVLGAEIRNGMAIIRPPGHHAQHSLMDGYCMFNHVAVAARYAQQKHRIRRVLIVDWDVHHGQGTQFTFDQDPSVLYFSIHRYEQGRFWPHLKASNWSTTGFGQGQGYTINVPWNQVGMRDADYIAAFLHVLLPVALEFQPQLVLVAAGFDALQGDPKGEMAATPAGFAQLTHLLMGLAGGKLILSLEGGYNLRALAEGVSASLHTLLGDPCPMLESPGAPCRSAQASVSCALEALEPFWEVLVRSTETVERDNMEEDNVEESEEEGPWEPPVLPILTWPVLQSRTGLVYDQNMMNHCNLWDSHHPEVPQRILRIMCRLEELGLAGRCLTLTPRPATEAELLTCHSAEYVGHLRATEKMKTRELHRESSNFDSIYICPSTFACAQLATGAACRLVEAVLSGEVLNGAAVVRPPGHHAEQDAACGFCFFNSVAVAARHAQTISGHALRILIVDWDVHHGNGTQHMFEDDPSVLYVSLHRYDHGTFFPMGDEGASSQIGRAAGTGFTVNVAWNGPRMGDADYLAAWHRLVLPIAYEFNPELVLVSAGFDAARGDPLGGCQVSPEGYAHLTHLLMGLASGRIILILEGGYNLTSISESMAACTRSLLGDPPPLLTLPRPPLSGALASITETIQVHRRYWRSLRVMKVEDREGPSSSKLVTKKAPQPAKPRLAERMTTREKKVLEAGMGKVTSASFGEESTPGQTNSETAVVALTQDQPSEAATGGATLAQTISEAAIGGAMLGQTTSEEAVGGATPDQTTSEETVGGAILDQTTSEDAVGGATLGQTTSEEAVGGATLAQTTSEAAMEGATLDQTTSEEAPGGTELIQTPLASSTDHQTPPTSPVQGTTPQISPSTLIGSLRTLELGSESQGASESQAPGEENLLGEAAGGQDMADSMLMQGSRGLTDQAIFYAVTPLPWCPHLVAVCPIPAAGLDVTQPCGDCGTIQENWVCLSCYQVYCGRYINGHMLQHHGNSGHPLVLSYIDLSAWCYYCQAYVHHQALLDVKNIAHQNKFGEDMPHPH

T47D = experiment: Antiproliferative activity against human T47D cells after 72 hrs by MTT assay; assay type: functional, cell-based
MCF7 = experiment: Antiproliferative activity against human MCF7 cells after 72 hrs by MTT assay; assay type: functional, cell-based; settings: MCF7, 72 h
MDA-MB-231 [4] = experiment: Antiproliferative activity against human MDA-MB-231 cells after 72 hrs by MTT assay; assay type: functional, cell-based; settings: MDA-MB-231, 72 h
HCC827 = experiment: Antiproliferative activity against human HCC827 cells after 72 hrs by MTT assay; assay type: functional, cell-based; settings: HCC827, 72 h
HeLa = experiment: Antiproliferative activity against human HeLa cells after 72 hrs by MTT assay; assay type: functional, cell-based
K562 = experiment: Antiproliferative activity against human K562 cells after 72 hrs by MTT assay; assay type: functional, cell-based; settings: K562, 72 h
U-937 = experiment: Antiproliferative activity against human U937 cells after 72 hrs by MTT assay; assay type: functional, cell-based; settings: U-937, 72 h
MDA-MB-231 [5] = experiment: Antiproliferative activity against human MDA-MB-231 cells after 5 days by MTT assay; assay type: functional, cell-based; settings: MDA-MB-231, 120 h
MCF-10A = experiment: Antiproliferative activity against human MCF10A cells after 72 hrs by MTT assay; assay type: cell-based
[6] = Safety index, ratio of compound IC50 to SAHA IC50 for human MCF10A cells; assay type: ADME, cell-based, MCF-10A; settings: read-out: Ratio IC50
Raji [7] = experiment: Antiproliferative activity against human Raji cells after 3 days by MTT assay; assay type: functional, cell-based; settings: 72 h
HCC1937 = experiment: Antiproliferative activity against human HCC1937 cells after 3 days by MTT assay; assay type: functional, cell-based; settings: HCC1937, 72 h
Raji [8] = experiment: Potency index, ratio of SAHA IC50 to compound IC50 for human Raji cells; assay type: functional
MDA-MB-231 [9] = experiment: Induction of apoptosis in human MDA-MB-231 cells assessed as early apoptotic cells at 2.5 uM after 48 hrs by Annexin V-FITC/propidium iodide staining based flow cytometry (reference value: 1.27%); assay type: functional
MDA-MB-231 [10] = experiment: Induction of apoptosis in human MDA-MB-231 cells assessed as late apoptotic cells at 2.5 uM after 48 hrs by Annexin V-FITC/propidium iodide staining based flow cytometry (reference value: 3.82%); assay type: functional
MDA-MB-231 [11] = experiment: Induction of apoptosis in human MDA-MB-231 cells assessed as necrotic cells at 2.5 uM after 48 hrs by Annexin V-FITC/propidium iodide staining based flow cytometry (reference value: 0.024%); assay type: functional
MDA-MB-231 [12] = experiment: Induction of apoptosis in human MDA-MB-231 cells assessed as viable cells at 2.5 uM after 48 hrs by Annexin V-FITC/propidium iodide staining based flow cytometry (reference value: 94.9%); assay type: functional; settings: MDA-MB-231, 48 h, read-out: Activity
MDA-MB-231 [13] = experiment: Induction of apoptosis in human MDA-MB-231 cells assessed as early apoptotic cells at 5 uM after 48 hrs by Annexin V-FITC/propidium iodide staining based flow cytometry (reference value: 1.27%); assay type: functional
MDA-MB-231 [14] = experiment: Induction of apoptosis in human MDA-MB-231 cells assessed as late apoptotic cells at 5 uM after 48 hrs by Annexin V-FITC/propidium iodide staining based flow cytometry (reference value: 3.82%); assay type: functional
MDA-MB-231 [15] = experiment: Induction of apoptosis in human MDA-MB-231 cells assessed as necrotic cells at 5 uM after 48 hrs by Annexin V-FITC/propidium iodide staining based flow cytometry (reference value: 0.024%); assay type: functional
MDA-MB-231 [16] = experiment: Induction of apoptosis in human MDA-MB-231 cells assessed as viable cells at 5 uM after 48 hrs by Annexin V-FITC/propidium iodide staining based flow cytometry (reference value: 94.9%); assay type: functional; settings: MDA-MB-231, 48 h, read-out: Activity
MDA-MB-231 [17] = experiment: Induction of apoptosis in human MDA-MB-231 cells assessed as early apoptotic cells at 10 uM after 48 hrs by Annexin V-FITC/propidium iodide staining based flow cytometry (reference value: 1.27%); assay type: functional
MDA-MB-231 [18] = experiment: Induction of apoptosis in human MDA-MB-231 cells assessed as late apoptotic cells at 10 uM after 48 hrs by Annexin V-FITC/propidium iodide staining based flow cytometry (reference value: 3.82%); assay type: functional
MDA-MB-231 [19] = experiment: Induction of apoptosis in human MDA-MB-231 cells assessed as necrotic cells at 10 uM after 48 hrs by Annexin V-FITC/propidium iodide staining based flow cytometry (reference value: 0.024%); assay type: functional
MDA-MB-231 [20] = experiment: Induction of apoptosis in human MDA-MB-231 cells assessed as viable cells at 10 uM after 48 hrs by Annexin V-FITC/propidium iodide staining based flow cytometry (reference value: 94.9%); assay type: functional; settings: MDA-MB-231, 48 h, read-out: Activity
MDA-MB-231 [21] = experiment: Induction of apoptosis in human MDA-MB-231 cells after 48 hrs by Annexin V-FITC/propidium iodide staining based flow cytometry; assay type: functional, cell-based
[22] = Antiproliferative activity against human MCF10A cells at less than 50 uM after 72 hrs by MTT assay relative to control; assay type: cell-based, MCF-10A
Homo sapiens = species on record: Homo sapiens; experiment: Selectivity ratio of IC50 for HDAC1 (unknown origin) to IC50 for HDAC6 (unknown origin)

Chain of Poly [ADP-ribose] polymerase 1 (P09874 whole entry, the tested form may be a part): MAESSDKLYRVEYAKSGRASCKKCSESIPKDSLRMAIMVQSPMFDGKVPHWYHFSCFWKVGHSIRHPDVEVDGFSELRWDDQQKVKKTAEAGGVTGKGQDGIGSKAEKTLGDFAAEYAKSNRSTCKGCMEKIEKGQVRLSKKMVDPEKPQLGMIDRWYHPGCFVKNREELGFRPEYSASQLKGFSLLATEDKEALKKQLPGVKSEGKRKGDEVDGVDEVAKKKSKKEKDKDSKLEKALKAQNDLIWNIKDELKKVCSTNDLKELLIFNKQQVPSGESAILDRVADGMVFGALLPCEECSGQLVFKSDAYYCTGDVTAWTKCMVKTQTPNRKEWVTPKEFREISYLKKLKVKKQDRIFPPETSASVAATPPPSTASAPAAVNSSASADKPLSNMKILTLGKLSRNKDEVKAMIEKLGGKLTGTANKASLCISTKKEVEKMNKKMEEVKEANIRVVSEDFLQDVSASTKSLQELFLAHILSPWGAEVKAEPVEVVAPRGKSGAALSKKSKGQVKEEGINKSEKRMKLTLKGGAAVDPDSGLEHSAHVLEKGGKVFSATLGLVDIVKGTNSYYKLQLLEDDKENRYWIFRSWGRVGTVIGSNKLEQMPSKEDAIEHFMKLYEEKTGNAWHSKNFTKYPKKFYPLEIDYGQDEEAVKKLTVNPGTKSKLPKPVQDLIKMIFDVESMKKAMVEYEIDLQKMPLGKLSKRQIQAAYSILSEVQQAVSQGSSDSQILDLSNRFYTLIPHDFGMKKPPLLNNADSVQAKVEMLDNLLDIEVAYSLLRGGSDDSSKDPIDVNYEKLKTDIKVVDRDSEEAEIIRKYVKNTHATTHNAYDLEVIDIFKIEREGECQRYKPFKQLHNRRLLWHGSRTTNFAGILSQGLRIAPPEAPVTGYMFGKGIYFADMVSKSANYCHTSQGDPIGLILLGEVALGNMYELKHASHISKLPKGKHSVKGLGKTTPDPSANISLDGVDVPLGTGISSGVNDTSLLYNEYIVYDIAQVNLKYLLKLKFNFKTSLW

SMILES | IC50 [1] | IC50 [2] | IC50 (Histone deacetylase 1) | IC50 [3] | IC50 (T47D) | IC50 (MCF7) | IC50 (MDA-MB-231 [4]) | IC50 (HCC827) | IC50 (HeLa) | IC50 (K562) | IC50 (U-937) | IC50 (MDA-MB-231 [5]) | IC50 (MCF-10A) | further results
O=C(/C=C/c1ccc(CN2CCN(C(=O)c3cc(Cc4n[nH]c(=O)c5ccccc45)ccc3F)CC2)cc1)NO | 15 nM | 2.53 nM | 38.2 nM | 10.2 nM | 4850 nM | 8080 nM | 2680 nM | 2960 nM | 6490 nM | 7580 nM | 3880 nM | 940 nM | 17400 nM | selectivity ratio [6]: 8.2; IC50 (Raji [7]): 810 nM; IC50 (HCC1937): 450 nM; Ratio IC50 (Raji [8]): 12; Activity (MDA-MB-231 [9]): 6.01%; Activity (MDA-MB-231 [10]): 5.56%; Activity (MDA-MB-231 [11]): 0.34%; viability at 2.5 µM (MDA-MB-231 [12]): 88.1%; Activity (MDA-MB-231 [13]): 11.9%; Activity (MDA-MB-231 [14]): 7.2%; Activity (MDA-MB-231 [15]): 0.634%; viability at 5 µM (MDA-MB-231 [16]): 80.2%; Activity (MDA-MB-231 [17]): 35.2%; Activity (MDA-MB-231 [18]): 40.8%; Activity (MDA-MB-231 [19]): 1.77%; viability at 10 µM (MDA-MB-231 [20]): 22.3%; Activity (MDA-MB-231 [21]): Dose-dependent effect
O=C(NO)c1ccc(CN2CCN(C(=O)c3cc(Cc4n[nH]c(=O)c5ccccc45)ccc3F)CC2)cc1 | 6.16 nM | 31.5 nM | 503 nM | 16.7 nM | > 50000 nM | 24100 nM | 33200 nM | 24000 nM | > 50000 nM | 43300 nM | 20500 nM | 18300 nM | > 50000 nM | inhibition at 72 h [22]: 20 to 30%; Ratio IC50 (Homo sapiens): 30
O=C(CCCCCCC(=O)Nc1ccccc1)NO [VORINOSTAT] |  |  |  |  |  |  |  |  |  |  |  |  | 2110 nM | 
